Test [1] has as its target human ACC2 (acetyl-coenzyme A carboxylase 2) (Homo sapiens, UniProt O00763). In words: Human ACC2 enzyme assay, Assay B2 (ADP-Glo). (In ADP-Glo the light output rises with the ADP produced.);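 also: human ACC2 activity read as ADP product, detected by luciferase glow luminescence after residual ATP removal, enzyme near 2 ng/µl in linear range, detection steps at 22 °C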
Method: The hACC2-inhibitory action of the substances of the present invention was measured in the hACC2 assay described in the paragraphs below.
Essentially, the enzyme activity is measured by quantifying the adenosine diphosphate (ADP) formed as a byproduct of the enzyme reactions using the ADP-Glo™ detection system from Promega. In this test, initially the adenosine triphosphate (ATP) not consumed in the enzyme reaction is converted quantitatively with an adenylate cyclase (“ADP-GLO reagent”) into cAMP, the adenylate cyclase is then stopped and (“kinase detection reagent”) the ADP formed is subsequently converted into ATP, which is converted in a luciferase-based reaction into a glow luminescence signal.
The concentration of the hACC2 was adapted to the respective activity of the enzyme and adjusted such that the assay operated in the linear range. Typical concentrations were in the range of 2 ng/μl. […] The amount of light emitted was taken as a measure for the amount of ADP formed and thus for the enzyme activity of the hACC2.
Test [2] deals with T1, human ACC1 (acetyl-coenzyme A carboxylase alpha transcript variant 1) (Homo sapiens, UniProt Q13085).
T1 construct: FLAG (C); made in house; host or cells: baculovirus-infected insect cells (Hi5)
As to the kind of experiment: Human ACC1 enzyme assay, Assay B1 (ADP-Glo). Type of test: biochemical.

Where [3] appears, read: Assay B1, read-out: ACC 1 (=B1) IC50.
[4] abbreviates: Assay B1, ADP-Glo, read-out: ACC 1 (=B1) IC50.

pIC50: −log10 of the molar value. Where two headings read alike, the source gives them in different places.

Broadly, the pIC50 is −log10 of the IC50, conventionally taken in molar units.

human ACC2 (acetyl-coenzyme A carboxylase 2), sequence (O00763 27-2458 limits assumed): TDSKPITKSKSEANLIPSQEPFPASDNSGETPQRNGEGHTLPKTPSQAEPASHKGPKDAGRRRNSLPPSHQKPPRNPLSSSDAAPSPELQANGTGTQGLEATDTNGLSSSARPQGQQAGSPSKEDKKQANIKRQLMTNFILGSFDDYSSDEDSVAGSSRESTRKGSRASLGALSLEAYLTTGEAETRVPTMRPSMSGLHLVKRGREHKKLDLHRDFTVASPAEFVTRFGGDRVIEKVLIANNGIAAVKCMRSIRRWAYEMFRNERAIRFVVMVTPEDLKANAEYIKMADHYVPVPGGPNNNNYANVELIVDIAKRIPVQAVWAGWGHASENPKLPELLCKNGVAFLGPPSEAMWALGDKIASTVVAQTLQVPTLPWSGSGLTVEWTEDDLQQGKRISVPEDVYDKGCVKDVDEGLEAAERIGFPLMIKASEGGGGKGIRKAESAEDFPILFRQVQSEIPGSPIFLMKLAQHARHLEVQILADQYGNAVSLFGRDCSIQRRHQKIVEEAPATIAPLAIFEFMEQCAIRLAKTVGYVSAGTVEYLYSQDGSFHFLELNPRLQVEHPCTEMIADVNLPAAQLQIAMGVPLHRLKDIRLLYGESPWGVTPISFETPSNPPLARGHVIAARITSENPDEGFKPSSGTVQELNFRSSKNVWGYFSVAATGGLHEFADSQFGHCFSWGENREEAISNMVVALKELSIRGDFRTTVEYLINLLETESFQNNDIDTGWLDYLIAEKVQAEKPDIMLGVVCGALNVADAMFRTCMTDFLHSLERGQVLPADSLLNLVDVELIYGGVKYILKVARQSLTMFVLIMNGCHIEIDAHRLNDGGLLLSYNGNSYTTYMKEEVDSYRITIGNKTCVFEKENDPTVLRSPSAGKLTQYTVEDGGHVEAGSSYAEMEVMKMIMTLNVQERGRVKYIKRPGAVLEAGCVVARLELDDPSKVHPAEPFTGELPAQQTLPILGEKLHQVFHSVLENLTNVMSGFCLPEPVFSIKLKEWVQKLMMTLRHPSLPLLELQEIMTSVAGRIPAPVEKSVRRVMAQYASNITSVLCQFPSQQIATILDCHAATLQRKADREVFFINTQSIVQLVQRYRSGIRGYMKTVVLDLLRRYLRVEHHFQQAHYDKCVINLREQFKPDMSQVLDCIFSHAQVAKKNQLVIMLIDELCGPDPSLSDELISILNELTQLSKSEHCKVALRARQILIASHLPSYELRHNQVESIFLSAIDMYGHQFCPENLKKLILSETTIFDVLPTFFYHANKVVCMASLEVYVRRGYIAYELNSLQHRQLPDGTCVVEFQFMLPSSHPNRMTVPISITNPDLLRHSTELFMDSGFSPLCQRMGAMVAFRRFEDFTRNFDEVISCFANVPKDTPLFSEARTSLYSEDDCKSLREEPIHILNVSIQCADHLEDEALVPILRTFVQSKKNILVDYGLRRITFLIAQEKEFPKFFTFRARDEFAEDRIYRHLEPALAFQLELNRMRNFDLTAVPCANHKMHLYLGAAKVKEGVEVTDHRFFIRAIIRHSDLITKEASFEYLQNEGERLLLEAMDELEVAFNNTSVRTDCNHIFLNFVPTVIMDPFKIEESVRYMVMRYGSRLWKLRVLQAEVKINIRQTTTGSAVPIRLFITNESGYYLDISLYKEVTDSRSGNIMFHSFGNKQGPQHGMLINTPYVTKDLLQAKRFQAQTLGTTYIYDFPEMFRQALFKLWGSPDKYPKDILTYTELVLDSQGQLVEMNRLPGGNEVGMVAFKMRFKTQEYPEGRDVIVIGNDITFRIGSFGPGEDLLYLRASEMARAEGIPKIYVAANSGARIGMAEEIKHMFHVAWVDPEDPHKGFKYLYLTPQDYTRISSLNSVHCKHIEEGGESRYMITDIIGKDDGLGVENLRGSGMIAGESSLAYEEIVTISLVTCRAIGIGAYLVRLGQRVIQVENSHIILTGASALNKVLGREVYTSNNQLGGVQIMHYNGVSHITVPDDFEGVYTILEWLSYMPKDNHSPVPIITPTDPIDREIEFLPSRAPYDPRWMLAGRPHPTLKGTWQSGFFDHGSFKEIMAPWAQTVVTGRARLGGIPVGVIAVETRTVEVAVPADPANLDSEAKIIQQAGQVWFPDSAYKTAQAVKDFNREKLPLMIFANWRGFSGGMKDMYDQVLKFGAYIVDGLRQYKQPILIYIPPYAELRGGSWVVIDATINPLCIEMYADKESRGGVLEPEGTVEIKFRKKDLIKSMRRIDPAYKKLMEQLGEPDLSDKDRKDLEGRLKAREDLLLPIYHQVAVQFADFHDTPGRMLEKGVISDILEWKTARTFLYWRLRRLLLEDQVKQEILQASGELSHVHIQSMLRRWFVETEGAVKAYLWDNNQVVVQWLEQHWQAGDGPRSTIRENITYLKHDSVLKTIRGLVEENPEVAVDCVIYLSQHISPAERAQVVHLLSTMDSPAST

Regarding `Cc1ccc(-c2ccc(Cl)cc2)cc1C1=C(O)C(C)(C(C)C)NC1=O` (stereo not drawn) [1-78, 3-(4′-chloro-4-methylbiphenyl-3-yl)-4-hydroxy-5-methyl-5-(propan-2-yl)-1,5-dihydro-2H-pyrrol-2-one], the results for the pIC50 in test [1] and in test [2] (setting [3]) were 5.09 and 6.02, respectively.

Consider `Cc1cc(C)c(-c2ccc(Cl)cc2)cc1C1=C(O)C2(CCOCC2)OC1=O` [2-41, 3-(4′-chloro-4,6-dimethylbiphenyl-3-yl)-4-hydroxy-1,8-dioxaspiro[4.5]dec-3-en-2-one], for which the figures for the pIC50 in test [1] and in test [2] (setting [4]) were 5.18 and 6.37, respectively.

For `Cc1ccc(-c2cccc(Cl)c2)cc1C1=C(O)C2(CCCCCC2)OC1=O` [2-50, 3-(3′-chloro-4-methylbiphenyl-3-yl)-4-hydroxy-1-oxaspiro[4.6]undec-3-en-2-one], the results for the pIC50 in test [1] and in test [2] were 4.81 and 5.89, respectively.

As for `Cc1ccc(-c2ccc(Cl)cc2)cc1C1=C(O)C(C)(C2CC2)NC1=O` (stereo not drawn) [1-86, 3-(4′-chloro-4-methylbiphenyl-3-yl)-5-cyclopropyl-4-hydroxy-5-methyl-1,5-dihydro-2H-pyrrol-2-one], the pIC50 in test [1] is 5.21; in test [2] (setting [3]), 6.24.

With `Cc1ccc(-c2ccc(Cl)cc2)cc1C1=C(O)C2(CCCC2)CC1=O` [6-4, 3-(4′-chloro-4-methylbiphenyl-3-yl)-4-hydroxyspiro[4.4]non-3-en-2-one], the pIC50 in test [1] is 5.33; in test [2] (setting [3]) it was 6.66.

With `Cc1cc(C)c(-c2ccc(Cl)cc2)cc1C1=C(O)C2(CCCOC2)OC1=O` (stereo not drawn) [2-46, 3-(4′-chloro-4,6-dimethylbiphenyl-3-yl)-4-hydroxy-1,7-dioxaspiro[4.5]dec-3-en-2-one], the pIC50 in test [1] is 5.28; in test [2] (setting [4]) it was 6.38.

`O=c1[nH]c2cc(Cl)ccc2c(O)c1-c1cc(-c2ccc(Cl)cc2)ccc1Cl` [9-13, 7-chloro-3-(4,4′-dichlorobiphenyl-3-yl)-4-hydroxyquinolin-2(1H)-one]: the pIC50 in test [1] is 5.40; in test [2] (setting [3]) it was 6.72.

With `Cc1ccc(-c2ccc(Cl)cc2)cc1C1=C(O)C2(CCCCC2)OC1=O` [2-10, 3-(4′-chloro-4-methylbiphenyl-3-yl)-4-hydroxy-1-oxaspiro[4.5]dec-3-en-2-one], the pIC50 in test [1] was 5.33; in test [2] (setting [4]), 7.17.

Take `Cc1ccc(-c2ccc(Cl)cc2)cc1C1=C(O)C2(CCC3(CC2)OCC(C)O3)NC1=O` (stereo not drawn) [1-63, 11-(4′-chloro-4-methylbiphenyl-3-yl)-12-hydroxy-2-methyl-1,4-dioxa-9-azadispiro[4.2.4.2]tetradec-11-en-10-one]: the pIC50 in test [1] was 5.14; in test [2] it was 6.56.

For `COC1CCCC2(C1)NC(=O)C(c1c(C)ccc(-c3ccc(Cl)cc3)c1C)=C2O` (stereo not drawn) [1-72, 3-(4′-chloro-2,4-dimethylbiphenyl-3-yl)-4-hydroxy-7-methoxy-1-azaspiro[4.5]dec-3-en-2-one], the pIC50 in test [1] is 4.83; in test [2] it was 5.94.

`CCOC1CCCC2(C1)NC(=O)C(c1c(C)ccc(-c3ccc(Cl)cc3)c1C)=C2O` (stereo not drawn) [1-73, 3-(4′-chloro-2,4-dimethylbiphenyl-3-yl)-7-ethoxy-4-hydroxy-1-azaspiro[4.5]dec-3-en-2-one]: the figures for the pIC50 in test [1] and in test [2] (setting [3]) were < 4.70 and 6.25, respectively.

For `CCOC1CCC2(CC1)NC(=O)C(c1cc(-c3ccc(Cl)cc3)ccc1C)=C2O` (stereo not drawn) [1-28, 3-(4′-chloro-4-methylbiphenyl-3-yl)-8-ethoxy-4-hydroxy-1-azaspiro[4.5]dec-3-en-2-one], the pIC50 in test [1] was 5.68; in test [2] (setting [3]), 6.36.

Consider `Cc1cc(C)c(-c2ccc(Cl)cc2)c(C)c1C1=C(O)C2(CCCC2)OC1=O` [2-49, 3-(4′-chloro-2,4,6-trimethylbiphenyl-3-yl)-4-hydroxy-1-oxaspiro[4.4]non-3-en-2-one], for which the pIC50 in test [1] was < 4.70; in test [2], ≤ 4.70.

Regarding `COCCC1CCCC2(C1)NC(=O)C(c1c(C)ccc(-c3ccc(Cl)cc3)c1C)=C2O` (stereo not drawn) [1-55, 3-(4′-chloro-2,4-dimethylbiphenyl-3-yl)-4-hydroxy-7-(2-methoxyethyl)-1-azaspiro[4.5]dec-3-en-2-one], the pIC50 is 5.48 in test [1] and 6.03 in test [2] (setting [3]).

With `Cc1ccc(-c2ccc(Cl)cc2)c(C)c1C1=C(O)C2(CCC3(CC2)OCC(C)O3)NC1=O` (stereo not drawn) [1-62, 11-(4′-chloro-2,4-dimethylbiphenyl-3-yl)-12-hydroxy-2-methyl-1,4-dioxa-9-azadispiro[4.2.4.2]tetradec-11-en-10-one], the pIC50 in test [1] is 5.24; in test [2] (setting [3]), 6.41.

Consider `Cc1ccc(-c2ccc(Cl)cc2)cc1C1=C(O)C2(CCCCCC2)OC1=O` [2-38, 3-(4′-chloro-4-methylbiphenyl-3-yl)-4-hydroxy-1-oxaspiro[4.6]undec-3-en-2-one], for which the pIC50 was 5.13 in test [1] and 6.41 in test [2].

On to `Cc1ccc(-c2ccc(Cl)cc2)cc1C1=C(O)C2(CCC3(CC2)OCCO3)NC1=O` [1-60, 11-(4′-chloro-4-methylbiphenyl-3-yl)-12-hydroxy-1,4-dioxa-9-azadispiro[4.2.4.2]tetradec-11-en-10-one], for which the negative logarithm of the IC50 (pIC50) in test [1] was 5.22; in test [2], 6.72.

As for `Cc1ccc(-c2ccc(Cl)cc2)cc1C1=C(O)CN(C(C)C)C1=O` [1-17, 3-(4′-chloro-4-methylbiphenyl-3-yl)-4-hydroxy-1-(propan-2-yl)-1,5-dihydro-2H-pyrrol-2-one], the pIC50 is 4.94 in test [1] and 6.26 in test [2].

For the compound `Cc1ccc(-c2ccc(Cl)cc2)c(C)c1C1=C(O)C2(CCC3(CC2)OCCO3)NC1=O` [1-70, 11-(4′-chloro-2,4-dimethylbiphenyl-3-yl)-12-hydroxy-1,4-dioxa-9-azadispiro[4.2.4.2]tetradec-11-en-10-one], the results for the negative logarithm of the IC50 (pIC50) in test [1] and in test [2] were 5.53 and 6.54, respectively.

With `Cc1cc(C)c(-c2c(O)c3ccc(Cl)cc3[nH]c2=O)cc1-c1ccc(Cl)cc1` [9-12, 7-chloro-3-(4′-chloro-4,6-dimethyl-biphenyl-3-yl)-4-hydroxyquinolin-2(1H)-one], the pIC50 in test [1] is 5.68; in test [2] (setting [3]), 6.42.

`Cc1ccc(-c2ccc(Cl)cc2)cc1C1=C(O)C2(CCC3(CC2)OCC(C)(C)CO3)NC1=O` [1-67, 3-(4′-chloro-4-methylbiphenyl-3-yl)-4-hydroxy-11,11-dimethyl-9,13-dioxa-1-azadispiro[4.2.5.2]pentadec-3-en-2-one]: the pIC50 was 5.28 in test [1] and 6.04 in test [2] (setting [3]).

In the case of `Cc1ccc(-c2ccc(Cl)cc2)cc1C1=C(O)C2(CCC3(CC2)OC(C)C(C)O3)NC1=O` (stereo not drawn) [1-64, 11-(4′-chloro-4-methylbiphenyl-3-yl)-12-hydroxy-2,3-dimethyl-1,4-dioxa-9-azadispiro[4.2.4.2]tetradec-11-en-10-one], the values for the pIC50 in test [1] and in test [2] were < 4.70 and 6.24, respectively.

For `COC1CCCC2(C1)OC(=O)C(c1cc(-c3ccc(Cl)cc3)ccc1C)=C2O` (stereo not drawn) [2-14, 3-(4′-chloro-4-methylbiphenyl-3-yl)-4-hydroxy-7-methoxy-1-oxaspiro[4.5]dec-3-en-2-one], the figures for the pIC50 in test [1] and in test [2] (setting [4]) were < 4.70 and 6.11, respectively.

Regarding `Cc1ccc(-c2ccc(Cl)cc2)cc1C1=C(O)CN(C2CC2)C1=O` [1-18, 3-(4′-chloro-4-methylbiphenyl-3-yl)-1-cyclopropyl-4-hydroxy-1,5-dihydro-2H-pyrrol-2-one], the pIC50 is 4.79 in test [1] and 6.01 in test [2] (setting [3]).

Consider `O=C1OC2(CCC3(CCCO3)CC2)C(O)=C1c1cc(-c2ccc(Cl)cc2)ccc1Cl` (stereo not drawn) [2-27, 3-(4,4′-dichlorobiphenyl-3-yl)-4-hydroxy-1,9-dioxadispiro[4.2.4.2]tetradec-3-en-2-one], for which the pIC50 is 5.15 in test [1] and 6.10 in test [2].

In the case of `Cc1cc(C)c(-c2ccc(Cl)cc2)c(C)c1C1=C(O)C(C)(C)OC1=O` [2-5, 3-(4′-chloro-2,4,6-trimethylbiphenyl-3-yl)-4-hydroxy-5,5-dimethylfuran-2(5H)-one], the results for the negative-log IC50 (pIC50) in test [1] and in test [2] were 5.13 and 5.90, respectively.

Turning to `O=C1NC2(CCC3(CC2)OCCCO3)C(O)=C1c1cc(-c2ccc(Cl)cc2)ccc1Cl` [1-58, 3-(4,4′-dichlorobiphenyl-3-yl)-4-hydroxy-9,13-dioxa-1-azadispiro[4.2.5.2]pentadec-3-en-2-one], the pIC50 in test [1] is 4.70; in test [2], 6.36.

Regarding `CC1(C)COC2(CCC3(CC2)NC(=O)C(c2cc(-c4ccc(Cl)cc4)ccc2Cl)=C3O)OC1` [1-65, 3-(4,4′-dichlorobiphenyl-3-yl)-4-hydroxy-11,11-dimethyl-9,13-dioxa-1-azadispiro[4.2.5.2]pentadec-3-en-2-one], the pIC50 is 4.83 in test [1] and 5.94 in test [2] (setting [3]).

Turning to `CCOC1CCC2(CC1)NC(=O)C(c1c(C)cc(C)c(-c3ccc(Cl)cc3)c1C)=C2O` (stereo not drawn) [1-75, 3-(4′-chloro-2,4,6-trimethylbiphenyl-3-yl)-8-ethoxy-4-hydroxy-1-azaspiro[4.5]dec-3-en-2-one], the pIC50 in test [1] was 6.10; in test [2] it was 5.25.

Consider `Cc1ccc(-c2ccc(Cl)cc2)c(C)c1C1=C(O)C2(CCCC2)OC1=O` [2-2, 3-(4′-chloro-2,4-dimethylbiphenyl-3-yl)-4-hydroxy-1-oxaspiro[4.4]non-32--en-2-one], for which the pIC50 in test [1] is < 4.70; in test [2], 5.63.

For `Cc1ccc(-c2ccc(Cl)cc2)cc1C1=C(O)C2(CCC3(CCCO3)CC2)OC1=O` (stereo not drawn) [2-29, 3-(4′-chloro-4-methylbiphenyl-3-yl)-4-hydroxy-1,9-dioxadispiro[4.2.4.2]tetradec-3-en-2-one], the negative-log IC50 (pIC50) was 5.52 in test [1] and 6.69 in test [2] (setting [4]).

On to `CCCC1CCC2(CC1)NC(=O)C(c1cc(-c3ccc(Cl)cc3)ccc1C)=C2O` (stereo not drawn) [1-83, 3-(4′-chloro-4-methylbiphenyl-3-yl)-4-hydroxy-8-propyl-1-azaspiro[4.5]dec-3-en-2-one], for which the pIC50 in test [1] was 5.73; in test [2] (setting [3]), 6.24.

Turning to `Cc1ccc(-c2ccc(C(F)(F)F)cc2)cc1-c1c(O)c2ccc(Cl)cc2[nH]c1=O` [9-6, 7-chloro-4-hydroxy-3-[4-methyl-4′-(trifluoromethy)biphenyl-3-yl]quinolin-2(1H)-one], the pIC50 in test [1] is < 4.70; in test [2] (setting [3]), 5.89.

The record behind these values is patent publication US20130040935A1, “CYCLIC KETO-ENOLS FOR THERAPY” (BAYER INTELLECTUAL PROPERTY GMBH, priority 2010, published 2013).
